From publication PMC12064818, “A general assay platform to study protein pharmacology using ligand-dependent structural dynamics” (Nature Communications, 2025) come the findings set out here.

Some results are limits rather than exact numbers.

The assay deals with T1, FLuc-C-HiBiT (Photinus pyralis, UniProt P08659).
T1 construct: firefly luciferase with C-terminal HiBiT tag, E. coli expressed
T1 sequence (P08659 whole entry, looked up): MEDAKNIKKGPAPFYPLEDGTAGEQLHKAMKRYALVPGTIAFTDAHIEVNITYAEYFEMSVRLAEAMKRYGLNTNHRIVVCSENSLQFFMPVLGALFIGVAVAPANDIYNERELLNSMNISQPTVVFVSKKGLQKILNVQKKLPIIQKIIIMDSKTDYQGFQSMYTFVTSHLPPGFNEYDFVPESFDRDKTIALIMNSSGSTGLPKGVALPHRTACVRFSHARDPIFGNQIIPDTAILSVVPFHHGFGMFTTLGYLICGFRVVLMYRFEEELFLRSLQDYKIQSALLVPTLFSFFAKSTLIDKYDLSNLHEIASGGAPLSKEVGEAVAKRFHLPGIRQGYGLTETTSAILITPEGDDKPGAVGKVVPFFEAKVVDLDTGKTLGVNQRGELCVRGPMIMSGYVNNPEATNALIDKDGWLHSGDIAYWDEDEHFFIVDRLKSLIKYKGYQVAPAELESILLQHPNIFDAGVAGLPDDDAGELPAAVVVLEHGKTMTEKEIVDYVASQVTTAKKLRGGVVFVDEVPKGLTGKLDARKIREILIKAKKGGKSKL
Put plainly: biochemical. The conditions noted are these: enzyme activity, 10 uM ATP; read-out: IC50 or SDR50 (mM) / FLuc E.
`CCOc1ccc2nc(N(Cc3cccnc3)C(=O)c3cccs3)sc2c1` [NCGC00136637-01]: the IC50 is more than 0.03 mM.
For `CC(C)c1ccc(C2=CC(c3ccc(C(C)C)cc3)n3nnnc3N2)cc1` (centres unmarked) [NCGC00140789-01], the IC50 was more than 0.03 mM.
Regarding `COc1ccc(Nc2nc(-c3ccccc3F)no2)cc1OC` [NCGC00422302-01], the IC50 came to 0.00351 mM.
As to `COc1ccc(-c2cc(=O)c3cc(OCC(=O)OC(C)C)ccc3o2)cc1` [NCGC00100608-01], the IC50 is 0.00394 mM.
To `O=C(c1cc(-c2ccc(F)cc2)nc2ccccc12)N1CCC(Cc2nncn2CC2CC2)CC1` [NCGC00456245-01] belongs 0.00881 mM.
On to `C[C@@H]1CN(c2nc(-c3ccccc3)no2)CC[C@@]1(O)C1CCC1` [NCGC00439928-01], for which the IC50 turned out to be 0.00176 mM.
To `Cc1ccc(C(=O)Nc2ccc(-c3nc4ccccc4s3)cc2C)cc1C` [NCGC00103062-01] belongs more than 0.03 mM.
Under `CC(=O)Nc1cccc(-c2cc3c(cn2)CN(Cc2ccccc2)CCN3)c1` [NCGC00411143-01] stands 0.0161 mM; under `O=C(Nc1ccc2c(c1)OCCO2)C1CN([S+](=O)([O-])C2CC2)CC12CCCCC2` (centres unmarked) [NCGC00439803-01], 0.00442 mM; under `Cc1ccc(NC(=O)N2CCC(CCNC(=O)c3ccc(F)cc3)CC2)cc1F` [NCGC00425047-01], 0.0111 mM.
Under `COc1ccc2nc(-c3cccc(C(C)=O)c3)sc2c1` [NCGC00167608-01] stands 0.00124 mM; under `N#Cc1c(-n2ncnc2-c2cccc(Cl)c2)sc2c1CCCCC2` [NCGC00099368-01], 0.00197 mM; under `O=C(O)c1ccnc(-c2ccnc(NCCN3CCCCC3=O)n2)c1` [NCGC00438481-01], 0.0111 mM.
With `CN(C)c1ccc(-c2nc3ccccn3c2Nc2ccc3c(c2)OCCO3)cc1` [NCGC00106568-01], the IC50 came out at 0.0111 mM.
With `CCCOC(=O)CSc1ncnc2sc3c(c12)CCC(C)C3` (centres unmarked) [NCGC00100112-01], the IC50 worked out at 0.0111 mM.
Under `C[C@H](C(=O)N1CCOCC1)C1CC[C@@]2(C)Cc3sc(-c4ccccc4)nc3[C@@H](C)[C@@H]2[C@H]1O` (some centres unmarked) [NCGC00421021-01] stands 0.00351 mM.
On to `COc1ccc(-c2cc3c(=O)n(CCNC(=O)c4c(F)cccc4F)ccn3n2)cc1` [NCGC00456908-01], for which the IC50 amounted to 0.00495 mM.
To `Cc1ccc(-c2cc(C(=O)N3CCC(Cc4nncn4CC4CC4)CC3)c3ccccc3n2)cc1C` [NCGC00456240-01] belongs 0.00197 mM; to `COc1cccc2cc(C(=O)Nc3ccc(C)cc3)c(=O)oc12` [NCGC00099361-01], 0.000495 mM.
Under `CC(C)n1cc(-c2cc(C(=O)N3CCC(C)(C)C3)c3ccc(F)cc3n2)cn1` [NCGC00430819-01] stands 0.00495 mM; under `O=C(Nc1cnc(-c2ccc(Cl)cc2)nc1)C1CCC1` [NCGC00432903-01], 0.00124 mM; under `O=C(Nc1c(C(=O)O)oc2ccccc12)c1ccc(C(F)(F)F)cc1` [NCGC00141808-01], 0.00989 mM.
As to `Cc1ccc(Cn2cc(-c3ccncc3)cc2C(=O)O)cc1` [NCGC00432741-01], the IC50 was more than 0.03 mM.
For the compound `CC(=O)N1CCNc2cc(Nc3ccc(F)cc3)ncc2C1` [NCGC00411083-01], the IC50 amounted to 0.0057 mM.
With `OC1(CN2CCCCC2)CCN(c2nc3ccccc3s2)C1` (centres unmarked) [NCGC00437487-01], the IC50 is 0.0157 mM.
In the case of `O=C(Nc1cccnc1)c1nc2c(o1)CCN(Cc1cccc(O)c1)CC2` [NCGC00413425-01], the IC50 was 0.0202 mM.
On to `Cc1cc(-c2cc3c(cn2)CN(CC(C)C)CCN3)ccn1` [NCGC00411077-01], for which the IC50 amounted to 0.0161 mM.
With `Cc1c(-c2ccccc2F)[nH]c2ccc(CNC(=O)C3CCCN(C(N)=O)C3)cc12` (centres unmarked) [NCGC00429038-01], the IC50 was found to be 0.00556 mM.
Consider `CCCn1c(C)cnc1CC1CCN(C(=O)C2(c3ccc(OC)cc3)CC2)C1` (centres unmarked) [NCGC00464172-01], for which the IC50 was more than 0.03 mM.
As to `Cc1cnc(CCNC(=O)Nc2ccc3c(c2)OCCO3)n1Cc1ccc(F)cc1` [NCGC00469838-01], the IC50 was 0.0124 mM.
For the compound `COc1cccc(Nc2cc3c(cn2)CN(C(C)=O)CCN3)c1` [NCGC00411096-01], the IC50 turned out to be 0.00904 mM.
As for `COc1cccc(CN2CCNc3cc(Nc4ccccc4)ncc3C2)c1` [NCGC00411172-01], the IC50 is 0.018 mM.
To `CC(C)c1ccc(NC(=O)c2ccc(CN3C(=O)NC4(CCOCC4)C3=O)cc2)cc1` [NCGC00454608-01] belongs 0.00351 mM.
On to `O=C(Nc1ccc(Cl)cc1)Nc1ccc2n(c1=O)C[C@H]1C[C@@H]2CN(C(=O)c2ccc3ccccc3c2)C1` [NCGC00395236-01], for which the IC50 came to 0.0124 mM.
As for `CC(=O)c1ccc(NC(=O)CSc2nnc(NC(=O)Nc3ccccc3)s2)cc1` [NCGC00136900-01], the IC50 came to 0.000881 mM.
Take `COc1ccc(-c2nc(-c3ccc(C(=O)O)cc3)no2)cc1` [NCGC00168104-02]: the IC50 was determined as 0.000111 mM.
Take `COc1cccc(-c2nc3ccc(-c4ccc5c(c4)OCO5)cc3o2)c1OC` [NCGC00474498-01]: the IC50 is 0.00248 mM.
To `O=C1NCCCCCCN(C(=O)Nc2ccc3c(c2)OCCO3)[C@H]2CCCC[C@@H]12` [NCGC00466580-01] belongs 0.00881 mM; to `Cc1ccc2sc(-c3ccc(N)cc3)nc2c1` [NCGC00117377-01], 0.000279 mM; to `COC(=O)c1cccc(-c2noc(-c3ccccc3F)n2)c1` [NCGC00183594-01], 0.00351 mM.
Under `OCc1cccc(-c2cc3c(cn2)CN(Cc2ccccc2)CCN3)c1` [NCGC00411045-01] stands 0.018 mM.
Consider `Cc1ccc(C(=O)O)cc1Nc1nc2ccccc2n2nnnc12` [NCGC00106886-01], for which the IC50 stood at 0.0124 mM.
Take `O=C(O)CCSc1nnc(-c2ccc(Cl)cc2Cl)o1` [NCGC00103142-01]: the IC50 worked out at 0.000495 mM.
`OCc1cn(CC2CCN(c3ncnc4[nH]cnc34)CC2)nn1` [NCGC00425096-01]: the IC50 is more than 0.03 mM.
As for `CCCOc1ccccc1C(=O)Nc1ccc(-c2nc3ccc(C)cc3s2)cc1` [NCGC00103054-01], the IC50 stood at 0.00624 mM.
On to `Cc1ccc(-c2cccc(COc3cnc4c(ccn4CC(=O)O)c3)c2)c(C)c1` [NCGC00418282-01], for which the IC50 is more than 0.03 mM.
Take `OC1(CN2CCCN(c3nc4ccccc4s3)CC2)CNCCOC1` (centres unmarked) [NCGC00443145-01]: the IC50 was more than 0.03 mM.
On to `COc1ccc(NC(=O)N2CCc3c(C(=O)Nc4ccc5c(c4)OCO5)cccc32)cc1` [NCGC00430172-01], for which the IC50 is 0.000881 mM.
Consider `Cc1ccc2nc(-c3ccc(NC(=O)COc4ccc(Cl)c(C)c4)cc3)sc2c1` [NCGC00098204-01], for which the IC50 was more than 0.03 mM.
Take `COc1ccc(C(=O)Nc2cccc(-c3nc4ccccc4s3)c2)cc1` [NCGC00596810-02]: the IC50 was more than 0.03 mM.
On to `COc1cccc(-c2csc(CN3CCCC(C)(NC(C)=O)C3)c2)c1` (centres unmarked) [NCGC00410342-01], for which the IC50 amounted to 0.0202 mM.
As to `COc1ccc(Nc2cc(C(=O)NC3CCC(C)CC3)c3ccccc3n2)cc1OC` (centres unmarked) [NCGC00108132-01], the IC50 was more than 0.03 mM.
As to `CCn1cc(-c2ccc(C)cc2)cc1C(=O)O` [NCGC00432661-01], the IC50 was more than 0.03 mM.
With `O=C(Nc1onc2c1CCCC2)c1ccccc1` [NCGC00115884-01], the IC50 amounted to 0.0111 mM.
As for `CN(C)c1cccc(C(=O)NC2CCN(c3cc(-c4ccc(Cl)cc4)n[nH]3)CC2)c1` [NCGC00437038-01], the IC50 came out at 0.00624 mM.
`Cc1oc(C(O)c2ccccc2F)nc1C(=O)Nc1ccc(N2CCOCC2)cc1` (centres unmarked) [NCGC00417991-01]: the IC50 was determined as 0.0161 mM.
Turning to `O=C(Nc1nc2c(F)cc(F)cc2s1)c1ccc2c(c1)OCCO2` [NCGC00134168-01], the IC50 stood at 0.00176 mM.
With `CC1CCCN(c2ncnc3c2cnn3-c2ccccc2)C1` (centres unmarked) [NCGC00081381-02], the IC50 worked out at 0.000442 mM.
For `C[S+](=O)([O-])CCn1ncc2cc(OCc3cccc(-c4cccnc4)c3)ccc21` [NCGC00418034-01], the IC50 came out at 0.0161 mM.
In the case of `CC(=O)NCCC1CCN(C(=O)Nc2ccc(C)cc2)CC1` [NCGC00424871-01], the IC50 was 0.0124 mM.
`Cc1ccc(-n2ncc3c(N4CCC(Cc5ccccc5)CC4)ncnc32)cc1C` [NCGC00139123-01]: the IC50 was more than 0.03 mM.
Take `Cn1c([C@H]2CCN(C3CCCCC3)C2)nc2ccccc21` [NCGC00394901-01]: the IC50 was 0.0254 mM.
On to `CSCC(=O)Nc1nc2c(s1)C[C@]1(C)CC[C@@H]3[C@H](OC(=O)[C@H]3C)[C@H]1[C@@H]2C` [NCGC00401416-01], for which the IC50 was determined as 0.00453 mM.
To `COc1ccc(-c2cc3c(cn2)CN(C)CCN3)cn1` [NCGC00411253-01] belongs 0.0226 mM; to `CC(=O)N[C@@H]1C=C[C@@H](c2c(C)nn(-c3ccc(C(F)(F)F)cc3)c2C)C1` [NCGC00400353-01], 0.0161 mM; to `O=C(Nc1cccc(-c2nc3ccccc3[nH]2)c1)c1ccccc1F` [NCGC00099429-01], 0.014 mM.
In the case of `Cc1nnc(CN(C)c2ccc(-c3nc(-c4cccc(Cl)c4)no3)cn2)o1` [NCGC00427683-01], the IC50 is 0.00495 mM.
Consider `c1ccc(Nc2ncc(-c3ccccc3)o2)cc1` [NCGC00242146-02], for which the IC50 came out at 0.000785 mM.
To `O=C(c1cc(-c2ccccc2O)on1)N1CCCCC1` [NCGC00105578-01] belongs 0.00989 mM; to `CSc1ccc(NC(=O)c2ccc3c(c2)N(C)C2CCCN2C3=O)cc1` (centres unmarked) [NCGC00452166-01], 0.0124 mM; to `O=C(NCc1ccoc1)c1ccc2nc(-c3ccc(F)cc3)cn2c1` [NCGC00425034-01], 0.0111 mM.
For `CC(C)c1ccc(N2C(=S)N[C@H]3[C@@H](O)[C@H](O)C[C@@H](C(=O)N(C)Cc4ccccc4)[C@H]32)cc1` [NCGC00391233-01], the IC50 was found to be 0.0111 mM.
As for `CCOc1cccc(-c2nc(C3CCOC3)no2)c1` (centres unmarked) [NCGC00445015-01], the IC50 was more than 0.03 mM.
Consider `CCOc1ccc(-n2nc(CO)c(C(=O)NCc3cccc(OC)c3)n2)cc1` [NCGC00117153-01], for which the IC50 amounted to 0.0111 mM.
To `O=C(Nc1ccc([C@H]2OCC(=O)N(Cc3ccncc3)[C@@H]2CO)cc1)c1ccc(C(F)(F)F)cc1` [NCGC00395114-01] belongs 0.0111 mM.
As to `Cc1ccccc1CN1CC[C@H](c2nc3cc(F)ccc3[nH]2)C1` [NCGC00396601-01], the IC50 is 0.0255 mM.
Under `C=CCCC(=O)N1CCOc2c(O)cc(-c3nc4ccccc4s3)cc2C1` [NCGC00429409-01] stands more than 0.03 mM.
